Assay in all cases: Tyrosine kinase inhibition assay
Holding throughout (assay type): biochemical
Holding throughout (settings): single concentration 1.0 μM, read-out: percent inhibition

For one assay, the target named is NTRK3 (TRKC) (Homo sapiens, UniProt Q16288). As for the experimental part:
(§1) Tyrosine kinase inhibition assays were performed at ThermoFisher Life Technologies (Madison, WI, USA) using standard protocols (SelectScreen Biochemical Profiling Service, Thermo Fisher Scientific). ATP concentrations used were at the apparent Km. Test compounds were screened in 1% dimethylsulffoxide (DMSO) (final concentration) in the well. For 10-point titrations, 3-fold serial dilutions were conducted from the starting concentration of […]. All Peptide/Kinase Mixtures were diluted to a 2× working concentration in the appropriate Kinase Buffer. All ATP Solutions were diluted to a 4× working concentration in Kinase Buffer (50 mM HEPES pH 7.5, 0.01% BRIJ-35, 10 mM MgCl2, 1 mM EGTA). The apparent ATP Km was previously determined using a Z′-LYTE assay. The Development Reagent was diluted in Development Buffer.
(§2) The inhibition activities of compounds were determined in biochemical assays using single concentration (1.0 μM) measurements. The results were provided as percent inhibition values. A compound displaying a percent inhibition value of greater 80% was defined as a hit. 99 different tyrosine kinases were used.

Another assay deals with T1, AURKC (Aurora C) (Homo sapiens, UniProt Q9UQB9).
T1 sequence (Q9UQB9 1-309): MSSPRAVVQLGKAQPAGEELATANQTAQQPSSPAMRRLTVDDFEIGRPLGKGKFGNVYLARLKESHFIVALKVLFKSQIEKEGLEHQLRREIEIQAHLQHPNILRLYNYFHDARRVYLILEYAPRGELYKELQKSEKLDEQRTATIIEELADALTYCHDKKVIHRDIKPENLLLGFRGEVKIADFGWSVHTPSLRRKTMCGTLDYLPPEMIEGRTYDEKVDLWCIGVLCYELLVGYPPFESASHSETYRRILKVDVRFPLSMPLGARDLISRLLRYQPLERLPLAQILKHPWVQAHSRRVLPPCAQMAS
As for the experimental part:
as §1, §2

The target of another assay is ALK (Homo sapiens, UniProt Q9UM73). On the procedure: as §1, §2
Chain of ALK (Q9UM73 19-1620): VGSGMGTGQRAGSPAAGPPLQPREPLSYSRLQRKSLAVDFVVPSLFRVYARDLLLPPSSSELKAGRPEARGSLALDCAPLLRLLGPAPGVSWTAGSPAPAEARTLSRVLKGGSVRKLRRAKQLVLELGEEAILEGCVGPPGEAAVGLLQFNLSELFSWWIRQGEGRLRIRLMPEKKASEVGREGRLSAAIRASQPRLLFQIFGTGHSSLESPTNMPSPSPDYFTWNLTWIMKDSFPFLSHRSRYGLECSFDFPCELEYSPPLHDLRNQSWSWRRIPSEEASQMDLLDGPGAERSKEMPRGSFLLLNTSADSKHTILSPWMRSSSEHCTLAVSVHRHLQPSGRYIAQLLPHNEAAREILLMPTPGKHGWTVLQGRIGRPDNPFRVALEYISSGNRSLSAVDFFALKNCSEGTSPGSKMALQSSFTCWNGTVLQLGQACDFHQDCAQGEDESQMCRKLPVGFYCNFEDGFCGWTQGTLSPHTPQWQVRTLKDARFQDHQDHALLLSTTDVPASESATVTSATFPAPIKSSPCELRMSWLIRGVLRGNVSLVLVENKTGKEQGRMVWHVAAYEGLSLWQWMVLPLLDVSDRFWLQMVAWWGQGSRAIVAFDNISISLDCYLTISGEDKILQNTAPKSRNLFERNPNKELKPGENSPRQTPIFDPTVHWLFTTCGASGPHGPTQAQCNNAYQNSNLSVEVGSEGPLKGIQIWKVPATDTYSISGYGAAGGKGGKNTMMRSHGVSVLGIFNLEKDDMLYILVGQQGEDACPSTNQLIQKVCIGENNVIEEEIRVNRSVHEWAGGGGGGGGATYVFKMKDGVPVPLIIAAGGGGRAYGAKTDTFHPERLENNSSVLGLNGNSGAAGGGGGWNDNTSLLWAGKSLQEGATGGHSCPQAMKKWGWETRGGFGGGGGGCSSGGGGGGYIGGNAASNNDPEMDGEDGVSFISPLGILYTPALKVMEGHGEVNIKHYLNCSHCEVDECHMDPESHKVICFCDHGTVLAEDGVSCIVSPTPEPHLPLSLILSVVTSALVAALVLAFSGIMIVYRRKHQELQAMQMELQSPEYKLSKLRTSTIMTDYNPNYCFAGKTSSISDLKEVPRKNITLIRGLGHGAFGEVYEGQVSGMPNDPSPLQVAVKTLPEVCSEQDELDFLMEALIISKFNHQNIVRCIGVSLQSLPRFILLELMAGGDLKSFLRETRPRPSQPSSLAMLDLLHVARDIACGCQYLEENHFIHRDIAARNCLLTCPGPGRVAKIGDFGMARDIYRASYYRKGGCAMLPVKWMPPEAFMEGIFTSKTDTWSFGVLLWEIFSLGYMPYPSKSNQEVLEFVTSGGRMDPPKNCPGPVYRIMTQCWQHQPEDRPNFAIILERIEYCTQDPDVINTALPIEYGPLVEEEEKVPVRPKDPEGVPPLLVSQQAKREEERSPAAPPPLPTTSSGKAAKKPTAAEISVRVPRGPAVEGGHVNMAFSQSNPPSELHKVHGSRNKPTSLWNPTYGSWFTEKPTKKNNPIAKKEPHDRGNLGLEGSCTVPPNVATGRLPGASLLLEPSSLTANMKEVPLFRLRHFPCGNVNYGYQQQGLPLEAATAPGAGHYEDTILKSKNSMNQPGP
The target of a further assay is DDR1 (Homo sapiens, UniProt Q08345). On the procedure: as §1, §2
A further assay concerns the target ABL2 (Arg) (Homo sapiens, UniProt P42684). As for the experimental part: as §1, §2
Another assay addresses INSR (Homo sapiens, UniProt P06213). On the procedure: as §1, §2
The target of another assay is T2, EPHB1 (Homo sapiens, UniProt P54762).
T2 sequence (P54762 18-984): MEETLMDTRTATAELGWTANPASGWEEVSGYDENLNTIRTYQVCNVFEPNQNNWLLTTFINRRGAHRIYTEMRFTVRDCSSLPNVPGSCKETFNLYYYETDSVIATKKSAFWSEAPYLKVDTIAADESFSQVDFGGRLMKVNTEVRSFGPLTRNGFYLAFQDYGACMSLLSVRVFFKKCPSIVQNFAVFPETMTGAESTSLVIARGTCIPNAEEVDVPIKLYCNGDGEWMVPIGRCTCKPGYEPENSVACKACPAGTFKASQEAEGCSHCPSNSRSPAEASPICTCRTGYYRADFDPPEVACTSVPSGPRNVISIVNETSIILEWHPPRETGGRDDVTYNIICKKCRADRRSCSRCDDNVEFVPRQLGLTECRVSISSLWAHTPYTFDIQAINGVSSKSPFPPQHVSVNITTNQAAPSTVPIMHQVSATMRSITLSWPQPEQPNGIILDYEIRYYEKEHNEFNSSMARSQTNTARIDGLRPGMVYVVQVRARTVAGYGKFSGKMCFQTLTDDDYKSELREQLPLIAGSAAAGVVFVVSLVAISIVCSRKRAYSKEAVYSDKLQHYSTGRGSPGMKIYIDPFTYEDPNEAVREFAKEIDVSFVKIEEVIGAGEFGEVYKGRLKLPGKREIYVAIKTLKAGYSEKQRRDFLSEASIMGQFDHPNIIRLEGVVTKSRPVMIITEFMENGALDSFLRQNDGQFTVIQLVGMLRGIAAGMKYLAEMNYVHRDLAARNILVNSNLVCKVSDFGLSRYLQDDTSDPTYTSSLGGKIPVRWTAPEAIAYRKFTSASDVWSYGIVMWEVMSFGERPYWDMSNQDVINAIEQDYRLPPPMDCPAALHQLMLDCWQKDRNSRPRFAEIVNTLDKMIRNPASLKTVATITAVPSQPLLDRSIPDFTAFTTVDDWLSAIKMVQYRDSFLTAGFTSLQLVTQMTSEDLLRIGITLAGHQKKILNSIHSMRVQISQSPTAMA
As for the experimental part:
as §1, §2

Structures are written as SMILES.

Chain of NTRK3 (TRKC) (Q16288 32-839): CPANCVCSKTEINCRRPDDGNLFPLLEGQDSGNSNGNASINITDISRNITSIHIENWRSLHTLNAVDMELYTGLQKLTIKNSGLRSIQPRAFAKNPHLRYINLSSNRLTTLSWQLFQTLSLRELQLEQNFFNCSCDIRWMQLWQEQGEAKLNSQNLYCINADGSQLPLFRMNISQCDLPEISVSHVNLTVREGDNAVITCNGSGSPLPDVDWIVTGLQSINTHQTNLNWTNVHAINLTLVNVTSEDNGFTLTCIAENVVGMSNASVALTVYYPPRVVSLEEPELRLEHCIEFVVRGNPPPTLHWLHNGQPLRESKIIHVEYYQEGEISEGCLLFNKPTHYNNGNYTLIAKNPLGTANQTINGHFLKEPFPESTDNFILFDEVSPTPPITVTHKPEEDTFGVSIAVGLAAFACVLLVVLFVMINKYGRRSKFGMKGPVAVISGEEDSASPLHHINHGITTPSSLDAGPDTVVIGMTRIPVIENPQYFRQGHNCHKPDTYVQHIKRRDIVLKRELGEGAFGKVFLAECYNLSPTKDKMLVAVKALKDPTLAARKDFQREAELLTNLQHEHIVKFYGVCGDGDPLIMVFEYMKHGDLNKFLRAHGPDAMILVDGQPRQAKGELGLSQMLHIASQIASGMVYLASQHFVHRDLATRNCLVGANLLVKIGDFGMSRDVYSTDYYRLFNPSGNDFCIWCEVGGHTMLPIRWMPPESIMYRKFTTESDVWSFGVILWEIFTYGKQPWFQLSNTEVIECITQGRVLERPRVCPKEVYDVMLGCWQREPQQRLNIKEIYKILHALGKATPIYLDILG
Chain of INSR (P06213 28-1382): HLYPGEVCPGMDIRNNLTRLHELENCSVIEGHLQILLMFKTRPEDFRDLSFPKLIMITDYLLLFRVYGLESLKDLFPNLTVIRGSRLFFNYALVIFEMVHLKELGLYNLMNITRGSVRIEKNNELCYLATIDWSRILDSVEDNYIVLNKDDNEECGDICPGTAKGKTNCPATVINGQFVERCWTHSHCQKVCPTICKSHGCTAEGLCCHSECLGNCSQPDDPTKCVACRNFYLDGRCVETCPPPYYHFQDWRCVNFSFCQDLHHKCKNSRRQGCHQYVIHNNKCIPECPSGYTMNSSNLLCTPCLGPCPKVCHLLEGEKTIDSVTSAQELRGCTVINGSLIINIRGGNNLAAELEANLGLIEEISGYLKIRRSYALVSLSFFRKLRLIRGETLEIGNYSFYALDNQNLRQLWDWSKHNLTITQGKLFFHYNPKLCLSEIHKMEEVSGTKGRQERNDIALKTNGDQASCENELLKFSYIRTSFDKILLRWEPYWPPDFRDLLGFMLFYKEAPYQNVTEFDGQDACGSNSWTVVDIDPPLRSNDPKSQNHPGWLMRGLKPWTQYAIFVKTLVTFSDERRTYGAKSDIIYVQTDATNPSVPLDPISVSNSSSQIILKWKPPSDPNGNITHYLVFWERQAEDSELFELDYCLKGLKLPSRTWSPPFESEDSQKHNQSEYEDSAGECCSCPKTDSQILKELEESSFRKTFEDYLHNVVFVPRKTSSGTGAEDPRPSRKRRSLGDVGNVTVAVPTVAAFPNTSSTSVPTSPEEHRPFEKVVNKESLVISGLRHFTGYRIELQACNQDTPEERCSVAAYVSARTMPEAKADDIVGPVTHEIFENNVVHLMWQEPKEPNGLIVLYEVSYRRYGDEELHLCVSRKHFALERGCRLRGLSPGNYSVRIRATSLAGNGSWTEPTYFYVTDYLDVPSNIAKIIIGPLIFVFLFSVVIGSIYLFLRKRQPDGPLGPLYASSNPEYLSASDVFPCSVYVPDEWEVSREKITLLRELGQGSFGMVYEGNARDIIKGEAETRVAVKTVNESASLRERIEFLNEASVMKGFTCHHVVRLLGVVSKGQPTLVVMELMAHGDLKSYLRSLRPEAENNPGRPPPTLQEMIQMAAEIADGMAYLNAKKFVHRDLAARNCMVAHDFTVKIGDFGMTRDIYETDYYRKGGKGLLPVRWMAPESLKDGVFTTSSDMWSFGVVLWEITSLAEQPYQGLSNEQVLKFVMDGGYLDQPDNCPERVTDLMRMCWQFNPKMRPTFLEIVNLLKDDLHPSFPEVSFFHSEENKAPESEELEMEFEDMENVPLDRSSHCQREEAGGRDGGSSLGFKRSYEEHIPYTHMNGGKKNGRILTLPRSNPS
Chain of ABL2 (Arg) (P42684 whole entry): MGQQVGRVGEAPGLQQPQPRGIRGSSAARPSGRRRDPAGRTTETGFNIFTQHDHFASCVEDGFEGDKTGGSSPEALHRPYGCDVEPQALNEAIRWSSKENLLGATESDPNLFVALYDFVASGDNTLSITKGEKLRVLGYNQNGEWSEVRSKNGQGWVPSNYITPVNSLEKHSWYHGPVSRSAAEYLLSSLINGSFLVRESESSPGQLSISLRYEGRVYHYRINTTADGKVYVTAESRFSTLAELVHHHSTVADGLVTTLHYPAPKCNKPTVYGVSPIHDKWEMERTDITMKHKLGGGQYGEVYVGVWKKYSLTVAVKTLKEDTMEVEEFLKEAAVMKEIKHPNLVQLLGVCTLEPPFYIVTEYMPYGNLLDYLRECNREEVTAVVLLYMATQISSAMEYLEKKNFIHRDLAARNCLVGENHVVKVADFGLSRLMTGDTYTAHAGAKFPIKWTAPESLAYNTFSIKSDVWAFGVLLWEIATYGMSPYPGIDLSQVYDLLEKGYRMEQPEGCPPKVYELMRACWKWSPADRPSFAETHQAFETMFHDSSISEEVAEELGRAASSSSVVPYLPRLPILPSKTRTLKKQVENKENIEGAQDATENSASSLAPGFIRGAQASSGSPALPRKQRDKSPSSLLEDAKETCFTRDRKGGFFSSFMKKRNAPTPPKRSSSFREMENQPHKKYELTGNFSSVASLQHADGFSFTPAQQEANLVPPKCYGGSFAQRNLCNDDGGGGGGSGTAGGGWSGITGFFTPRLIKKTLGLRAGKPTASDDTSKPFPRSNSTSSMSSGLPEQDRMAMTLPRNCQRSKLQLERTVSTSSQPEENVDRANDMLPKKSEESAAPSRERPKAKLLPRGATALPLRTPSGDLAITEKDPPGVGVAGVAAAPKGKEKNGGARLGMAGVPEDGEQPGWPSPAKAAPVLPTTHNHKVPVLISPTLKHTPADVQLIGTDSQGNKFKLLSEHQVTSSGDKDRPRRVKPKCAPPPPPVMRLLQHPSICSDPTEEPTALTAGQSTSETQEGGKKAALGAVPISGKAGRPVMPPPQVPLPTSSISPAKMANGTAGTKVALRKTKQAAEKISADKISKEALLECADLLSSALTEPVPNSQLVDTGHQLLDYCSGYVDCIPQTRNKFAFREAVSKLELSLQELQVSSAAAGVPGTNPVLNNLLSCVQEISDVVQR

For `COc1cc2nccc(Oc3ccc(NC(=O)C4(C(=O)Nc5ccc(F)cc5)CC4)cc3)c2cc1OC` [Cabozantinib, reference compound], the inhibition (usually how much of the control response was suppressed) at 1 µM at NTRK3 (TRKC) was determined as 97%; at AURKC (Aurora C), 59%; on ALK, 28%; on DDR1 it was 100%; at ABL2 (Arg), 35%; at INSR it was 16%. For the same compound, the inhibition at 1 µM at EPHB1 was found to be 99%.
In the case of `COc1cc2nccc(Oc3ccc(NC(=O)C4(NC(=O)c5ccc(F)cc5)CC4)cc3F)c2cc1OC` [Cbo-02, N-(1-((4-((6,7-diMethoxyquinolin-4-yl)oxy)-3-fluorophenyl)carbamoyl)cyclopropyl)-4-fluorobenzamide], the inhibition at 1 µM at NTRK3 (TRKC) was determined as 58%; at AURKC (Aurora C), 74%; at ALK, 20%; at DDR1, 51%; at ABL2 (Arg), 12%; on INSR it was 30%. At EPHB1, the inhibition at 1 µM came out at 37%.
As for `COc1cc2nccc(Oc3ccc(NC(=O)C4(NC(=O)c5ccc(F)cc5)CC4)cc3F)c2cc1Oc1ccc(N)cc1F` [Cbo-10], the inhibition at 1 µM was determined as 89% at NTRK3 (TRKC); 63% at AURKC (Aurora C); 36% on ALK; 50% on DDR1; 17% at ABL2 (Arg); 69% at INSR. The inhibition at 1 µM on EPHB1 was 74%.
`COc1cc2nccc(Oc3ccc(NC(=O)C4(NC(=O)c5ccc(F)cc5)CC4)cc3F)c2cc1Oc1c(F)cc(N)cc1F` [Cbo-14]: the inhibition at 1 µM at NTRK3 (TRKC) came to 98%; on AURKC (Aurora C) it was 59%; at ALK it was 32%; on DDR1 it was 53%; on ABL2 (Arg) it was 18%; on INSR it was 70%. On EPHB1, the inhibition at 1 µM is 75%.
As for `COc1cc2nccc(Oc3ccc(NC(=O)C4(C(=O)Nc5ccc(F)cc5)CC4)cc3F)c2cc1Oc1ccc(N)cc1F` [Cbo-23], the inhibition at 1 µM is 98% at NTRK3 (TRKC); 41% at AURKC (Aurora C); 78% at ALK; 92% at DDR1; 54% on ABL2 (Arg); 54% on INSR. Besides, the inhibition at 1 µM on EPHB1 was determined as 99%.
